Values of other authors in patent US20200254068A1, “METHODS FOR TREATING TRAUMATIC BRAIN INJURY” (LOMA LINDA UNIVERSITY, priority 2017, published 2020).

Settings: given acutely, goal of reducing cerebral edema

Compound | outcome in clinical TBI trials | mortality rate in clinical TBI trials
CC(=O)[C@H]1CC[C@H]2[C@@H]3CCC4=CC(=O)CC[C@]4(C)[C@H]3CC[C@]12C [progesterone] | unsuccessful | –
C[C@@H]1C[C@H]2[C@@H]3CCC4=CC(=O)C=C[C@]4(C)[C@@]3(F)[C@@H](O)C[C@]2(C)[C@@]1(O)C(=O)CO [dexamethasone] | – | increase the mortality rate
